pEC50: −log10 of the molar value. Read-outs that look alike come from different tables or passages of the source.
Target: T1, α1A-ARS (Homo sapiens, UniProt P35348)
T1 sequence (P35348 1-466): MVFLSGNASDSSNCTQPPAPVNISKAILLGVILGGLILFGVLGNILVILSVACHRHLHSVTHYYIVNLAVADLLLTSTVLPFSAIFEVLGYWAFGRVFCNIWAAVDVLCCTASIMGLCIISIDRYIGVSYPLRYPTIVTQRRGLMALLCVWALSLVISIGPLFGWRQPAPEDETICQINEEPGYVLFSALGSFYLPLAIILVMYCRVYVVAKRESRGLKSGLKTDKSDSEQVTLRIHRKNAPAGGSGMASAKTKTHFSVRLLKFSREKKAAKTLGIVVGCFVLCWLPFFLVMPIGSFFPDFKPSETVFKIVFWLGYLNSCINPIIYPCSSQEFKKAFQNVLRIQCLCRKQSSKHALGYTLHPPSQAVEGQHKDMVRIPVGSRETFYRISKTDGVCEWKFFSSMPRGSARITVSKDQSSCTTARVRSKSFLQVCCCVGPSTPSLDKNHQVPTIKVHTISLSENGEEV
Experiment: Calcium flux assay (Calcium 6 dye) in cells expressing an α1-AR
Type: cell-based
Settings: for Emax: read-out: Average Emax; for pEC50: mean of at least three experiments, read-out: Average PEC50
Description: Calcium flux experimental design: alpha-1 adrenergic receptors (α1-ARs) couple to Gq proteins, which results in downstream activation of phospholipase C and release of calcium from intracellular stores. Intracellular calcium increase upon α1-AR activation can be detected by Calcium 6 dye.
Cell preparation: cells expressing an α1-AR were washed in warmed phosphate-buffered saline to remove medium and harvested using versene (Caisson Labs, catalog #EDL01).
Media was removed from cells by tapping plates upside-down on absorbent wipes, followed by 15 second upside-down 50×g centrifugation, again on absorbent wipes. 12 μL cell dye solution was added to cells using a reagent dispenser (Integra viaFILL) and cells were incubated for 90 minutes at 37° C., 5% CO2.
Compound preparation: candidate alpha-adrenergic compounds, dissolved to 10 mM in DMSO, were diluted in_assay buffer (HBSS/H-EPES containing 2 mM CaCl2 and 2 mM probenecid sodium salt). […] On all assay plates, vehicle (DMSO) and positive control (10 μM epinephrine) conditions were included on the plate, as well as a dose-response curve of epinephrine. […] 384 well compound plates were centrifuged briefly at 250×g, sealed (Axygen PCR-SP) and incubated at 37° C. until the 90 minute cell dye incubation was complete.
Calcium 6 stained cells and 384 well compound plates were loaded onto the Flexstation and incubated on the machine for 5 minutes before initiating the assay.
For each assay well, baseline Calcium 6 fluorescence was detected for 18 seconds prior to 12 μL compound addition at 12 μL per second. Changes in Calcium 6 fluorescence were detected for a further 22 seconds, for a total read time of 40 seconds. All detection was performed with medium gain sensitivity, bottom read, with 6 flashes per read.
Data analysis: for calcium flux, analysis of maximum change from baseline over the 40-second read time was determined using Softmax Pro and data was exported as raw text files. Potency estimates (EC50) were derived from dose response curves (maximum change from baseline versus the log concentration of test compound) fit by four-parameter nonlinear regression using Graphpad Prism. Efficacy was determined by comparing the magnitude of the test compound signal window (fitted curve max−min) with the signal window of the full agonist control, epinephrine. […] All experiments were repeated a minimum of three times, with the average (mean) potency and maximum effect relative to the within-plate full agonist dose-response comparator reported.

[1] = calcium flux, α1A-AR, maximum effect relative to full agonist epinephrine

SMILES | Emax [1] [%] | pEC50 (calcium flux, α1A-AR) | Emax [%]
Cn1nccc1-c1ccc(CC2=NCCN2)cc1Cl [Compound 1] | < 20 | < 6.00 | –
Clc1cc(CC2=NCCN2)ccc1-c1ccn[nH]1 [Compound 2] | < 20 | < 6.00 | –
Cc1cc(Cl)ccc1CC1=NCCN1 [Compound 38] | – | 6.01 to 8.00 | 21 to 60
FC(F)(F)c1cc(Cl)ccc1CC1=NCCN1 [Compound 39] | – | 6.01 to 8.00 | > 61
COc1cc(Cl)ccc1CC1=NCCN1 [Compound 40] | – | 6.01 to 8.00 | 21 to 60
CC(C)(C)c1cc(Cl)ccc1CC1=NCCN1 [Compound 41] | – | < 6.00 | < 20
Cc1oc2ccc(CC3=NCCN3)cc2c1C [Compound 42] | – | < 6.00 | < 20
Cc1oc2cc(CC3=NCCN3)ccc2c1C [Compound 43] | – | 6.01 to 8.00 | 21 to 60
Cc1c(CC2=NCCN2)cc(C)c2occc12 [Compound 44] | – | 6.01 to 8.00 | 21 to 60
Cc1oc2c(CC3=NCCN3)cccc2c1C [Compound 45] | – | 6.01 to 8.00 | > 61
COc1c(CC2=NCCN2)ccc2occc12 [Compound 47] | – | 6.01 to 8.00 | 21 to 60
c1cc(CC2=NCCN2)c2occc2c1 [Compound 48] | – | 6.01 to 8.00 | > 61
c1cc(CC2=NCCN2)c2[nH]ccc2c1 [Compound 50] | – | 6.01 to 8.00 | 21 to 60
c1cc(CC2=NCCN2)c2[nH]ncc2c1 [Compound 51] | – | < 6.00 | 21 to 60
Clc1c(CC2=NCCN2)ccc2occc12 [Compound 52] | – | 6.01 to 8.00 | < 20
Clc1cc2occc2cc1CC1=NCCN1 [Compound 53] | – | > 8.01 | > 61

SMILES | Emax [1] [%] | pEC50 (calcium flux, α1A-AR) | Emax [%]
Cc1c(CC2=NCCN2)ccc2occc12 [Compound 54] | – | 6.01 to 8.00 | 21 to 60
Cc1c(CC2=NCCN2)ccc2[nH]ncc12 [Compound 55] | – | 6.01 to 8.00 | 21 to 60
Cc1c(CC2=NCCN2)cc(Cl)c2occc12 [Compound 56] | – | 6.01 to 8.00 | 21 to 60
Cc1c(CC2=NCCN2)ccc2c1CCO2 [Compound 58] | – | 6.01 to 8.00 | 21 to 60
Cc1cc2cccc(CC3=NCCN3)c2o1 [Compound 59] | – | 6.01 to 8.00 | > 61
Cc1coc2c(CC3=NCCN3)cccc12 [Compound 60] | – | 6.01 to 8.00 | 21 to 60
Cc1c(CC2=NCCN2)ccc2cc[nH]c12 [Compound 61] | – | 6.01 to 8.00 | < 20
Clc1cn(C2CC2)c2cc(CC3=NCCN3)ccc12 [Compound 63] | – | 6.01 to 8.00 | 21 to 60
CC(C)(C)c1ccccc1CC1=NCCN1 [Compound 64] | – | < 6.00 | < 20
Clc1ccc(CC2=NCCN2)c(C2CC2)c1 [Compound 65] | – | 6.01 to 8.00 | > 61
Cc1cc(C(F)(F)F)ccc1CC1=NCCN1 [Compound 66] | – | 6.01 to 8.00 | 21 to 60
CCc1cc(Cl)ccc1CC1=NCCN1 [Compound 67] | – | 6.01 to 8.00 | > 61
Fc1ccc(CC2=NCCN2)c(C2CC2)c1 [Compound 70] | – | 6.01 to 8.00 | 21 to 60
CCc1cc(F)ccc1CC1=NCCN1 [Compound 71] | – | 6.01 to 8.00 | 21 to 60
Cc1cc(F)ccc1CC1=NCCN1 [Compound 73] | – | 6.01 to 8.00 | 21 to 60

Continued, in another order:

Emax [1] [%] | pEC50 (calcium flux, α1A-AR) | SMILES | Emax [%]
< 20 | < 6.00 | Clc1cc(CC2=NCCN2)ccc1-c1ncco1 [Compound 3] | –
< 20 | < 6.00 | Cc1csc(-c2ccc(CC3=NCCN3)cc2Cl)n1 [Compound 4] | –
21 to 60 | 6.01 to 8.00 | Cc1c(CC2=NCCN2)cccc1-c1ncco1 [Compound 5] | –
21 to 60 | 6.01 to 8.00 | Cc1c(CC2=NCCN2)cccc1-c1cn[nH]c1 [Compound 6] | –
21 to 60 | 6.01 to 8.00 | Cc1c(CC2=NCCN2)cccc1-c1ccnn1C [Compound 7] | –
< 20 | < 6.00 | Cc1csc(-c2cccc(CC3=NCCN3)c2C)n1 [Compound 8] | –
21 to 60 | 6.01 to 8.00 | Clc1ccc(CC2=NCCN2)cc1-c1ncco1 [Compound 10] | –
< 20 | < 6.00 | Cn1nccc1-c1cc(CC2=NCCN2)ccc1Cl [Compound 11] | –
< 20 | 6.01 to 8.00 | Cc1c(CC2=NCCN2)ccc(-c2ncco2)c1Cl [Compound 12] | –
> 61 | 6.01 to 8.00 | Clc1ccc(CC2=NCCN2)c(-c2ncco2)c1 [Compound 13] | –
21 to 60 | 6.01 to 8.00 | Cc1c(CC2=NCCN2)ccc(Cl)c1-c1ncco1 [Compound 14] | –
< 20 | < 6.00 | Cc1c(CC2=NCCN2)ccc(Cl)c1-c1ccnn1C [Compound 15] | –
21 to 60 | 6.01 to 8.00 | Cn1nccc1-c1cc(Cl)ccc1CC1=NCCN1 [Compound 16] | –
< 20 | < 6.00 | Cc1c(CC2=NCCN2)ccc(Cl)c1-c1cn[nH]c1 [Compound 17] | –
> 61 | 6.01 to 8.00 | Clc1ccc(CC2=NCCN2)c(-c2ccccn2)c1 [Compound 18] | –
> 61 | < 6.00 | Clc1ccc(CC2=NCCN2)c(-c2cccnc2)c1 [Compound 19] | –
21 to 60 | 6.01 to 8.00 | Cc1c(CC2=NCCN2)cccc1-c1cc[nH]n1 [Compound 20] | –
> 61 | 6.01 to 8.00 | Clc1ccc(CC2=NCCN2)c(-n2cccn2)c1 [Compound 21] | –
21 to 60 | 6.01 to 8.00 | Cc1c(CC2=NCCN2)cccc1-n1cccn1 [Compound 22] | –
21 to 60 | 6.01 to 8.00 | Clc1ccc(CC2=NCCN2)cc1-n1cccn1 [Compound 23] | –

Emax [1] [%] | pEC50 (calcium flux, α1A-AR) | SMILES | Emax [%]
21 to 60 | 6.01 to 8.00 | Cc1csc(-c2cc(Cl)ccc2CC2=NCCN2)n1 [Compound 24] | –
> 61 | > 8.01 | Clc1ccc(CC2=NCCN2)c(-c2nccs2)c1 [Compound 25] | –
< 20 | 6.01 to 8.00 | Cc1c(CC2=NCCN2)cccc1-c1cccs1 [Compound 26] | –
21 to 60 | 6.01 to 8.00 | Clc1ccc(CC2=NCCN2)c(-c2cnccn2)c1 [Compound 27] | –
> 61 | > 8.01 | Clc1ccc(CC2=NCCN2)c(-c2cccs2)c1 [Compound 28] | –
21 to 60 | 6.01 to 8.00 | Cc1c(CC2=NCCN2)cccc1-c1ccco1 [Compound 29] | –
> 61 | > 8.01 | Clc1ccc(CC2=NCCN2)c(-c2ccco2)c1 [Compound 30] | –
> 61 | 6.01 to 8.00 | Clc1ccc(CC2=NCCN2)c(-c2ncccn2)c1 [Compound 32] | –
< 20 | < 6.00 | Clc1ccc(CC2=NCCN2)c(-c2cccnn2)c1 [Compound 33] | –
21 to 60 | < 6.00 | Clc1ccc(CC2=NCCN2)c(-c2ccncn2)c1 [Compound 34] | –
> 61 | > 8.01 | Cc1ccoc1-c1cc(Cl)ccc1CC1=NCCN1 [Compound 35] | –
< 20 | < 6.00 | Cc1c(CC2=NCCN2)ccc(Cl)c1-c1nccs1 [Compound 36] | –
21 to 60 | 6.01 to 8.00 | Cc1cc(-c2cc(Cl)ccc2CC2=NCCN2)sn1 [Compound 37] | –
21 to 60 | 6.01 to 8.00 | c1cc2c(cc1CC1=NCCN1)NCC21CC1 [Compound 46] | –
< 20 | < 6.00 | Clc1cn(-c2cn[nH]c2)c2cc(CC3=NCCN3)ccc12 [Compound 62] | –
< 20 | < 6.00 | FC(F)(F)c1ccc(CC2=NCCN2)c(N2CCOCC2)c1 [Compound 68] | –
21 to 60 | 6.01 to 8.00 | FC(F)(F)c1ccc(CC2=NCCN2)c(N2CCCCC2)c1 [Compound 69] | –
< 20 | < 6.00 | Fc1ccc(CC2=NCCN2)c(N2CCOCC2)c1 [Compound 72] | –
> 61 | 6.01 to 8.00 | Clc1ccc(CC2=NCCN2)c(-c2ccccc2)c1 [Compound 74] | –
